Data: publication PMC6614406, “Phylogenetic and crystallographic analysis of Nostoc phycocyanin having blue-shifted spectral properties” (Scientific Reports, 2019)

Experiments:
[1] = molecular target: T1, Nostoc sp. R76DM phycocyanin (N-PC) (Nostoc, UniProt A0A5H1ZR40+A0A5H1ZR41); assay: X-ray crystal structure ([…] Å); assay type: binding; details: covalent; native chromophore attached to alpha Cys84, beta Cys82 and beta Cys153; 18 PCB per hexamer
T1 construct: native, purified from Nostoc sp; R76DM cells; (alpha3beta3)2 hexamer; subunits near 18 kDa on SDS-PAGE; chromophores covalently attached
T1 sequence (A0A5H1ZR41 entry or part of it): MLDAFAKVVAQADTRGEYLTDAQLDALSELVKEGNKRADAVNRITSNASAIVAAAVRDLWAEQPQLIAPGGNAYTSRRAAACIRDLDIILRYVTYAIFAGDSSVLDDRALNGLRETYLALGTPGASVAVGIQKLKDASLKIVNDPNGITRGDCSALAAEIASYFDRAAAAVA
T1 sequence (A0A5H1ZR40 entry or part of it): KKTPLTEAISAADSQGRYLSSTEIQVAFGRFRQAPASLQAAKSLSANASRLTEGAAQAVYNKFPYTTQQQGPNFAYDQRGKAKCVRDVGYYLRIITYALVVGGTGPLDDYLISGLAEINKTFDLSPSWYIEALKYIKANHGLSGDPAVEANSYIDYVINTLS

[2] = molecular target: Nostoc sp. R76DM phycocyanin αβ heterodimer (αβ monomer) (Nostoc sp. R76DM); assay: crystal structure; N-PC at 10 mg/mL, sitting drop vapor diffusion, 0.2 M sodium malonate, 20% (w/v) PEG 3350, 25 °C; space group P21, 2.35 Å; one (α3β3)2 hexamer in the asymmetric unit

Row | stoichiometry N [2] | Compound | X-ray crystal structure (2.35 Å) [1]
1 |  | C/C=C1/C(=C/c2[nH]c(/C=C3N=C(/C=C4\NC(=O)C(CC)=C4C)C(C)=C\3CCC(=O)O)c(CCC(=O)O)c2C)NC(=O)[C@@H]1C [phycocyanobilin] | The N-PC contains three PCB chromophores; one is attached covalently with Cys84 of α-subunit
2 | 6 | Nostoc sp. R76DM phycocyanin αβ heterodimer (αβ monomer) (complex) | 
